The term DC50 denotes the concentration giving 50% degradation. For orientation: Dmax means the greatest extent of degradation seen.

Where two headings read alike, the source gives them in different places. Some results are limits rather than exact numbers.

For assay [1], the target named is T1, Ikaros (Homo sapiens, UniProt Q13422).
T1 construct: fluorescently labelled antibodies against Helios and Ikaros; endogenous in cells; host or cells: Jurkat cells
Briefly: Helios Cellular Degradation Assay, Ikaros readout (flow cytometry, Ikaros-Alexa488 antibody staining, 72 h). It is filed as cell-based. To be noted: for Dmax: Jurkat, read-out: Ikaros Dmax. Summed up: (§1)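 Jurkat cells (80,000/well, RPMI+10% FBS) were exposed to compound for 72 h at 37 °C, then fixed, permeabilized and co-stained for 1 h with Ikaros-Alexa488 and Helios-PE antibodies. Intracellular protein levels were read by flow cytometry.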
(Flow cytometry measures light scatter and fluorescence of single cells or particles in a stream.)

In assay [2] the target is T2, Helios (Homo sapiens, UniProt Q96SW2+Q9UKS7).
T2 construct: fluorescently labelled antibodies against Helios and Ikaros; endogenous in cells; host or cells: Jurkat cells
Briefly: Helios Cellular Degradation Assay (flow cytometry, Helios-PE antibody staining, 72 h). Conditions: for Dmax: Jurkat, read-out: Helios Dmax. It is filed as cell-based. The method in brief: as §1

[3] abbreviates: Jurkat cells, 72 h incubation, flow cytometry.

T2 sequence (Q9UKS7 whole entry): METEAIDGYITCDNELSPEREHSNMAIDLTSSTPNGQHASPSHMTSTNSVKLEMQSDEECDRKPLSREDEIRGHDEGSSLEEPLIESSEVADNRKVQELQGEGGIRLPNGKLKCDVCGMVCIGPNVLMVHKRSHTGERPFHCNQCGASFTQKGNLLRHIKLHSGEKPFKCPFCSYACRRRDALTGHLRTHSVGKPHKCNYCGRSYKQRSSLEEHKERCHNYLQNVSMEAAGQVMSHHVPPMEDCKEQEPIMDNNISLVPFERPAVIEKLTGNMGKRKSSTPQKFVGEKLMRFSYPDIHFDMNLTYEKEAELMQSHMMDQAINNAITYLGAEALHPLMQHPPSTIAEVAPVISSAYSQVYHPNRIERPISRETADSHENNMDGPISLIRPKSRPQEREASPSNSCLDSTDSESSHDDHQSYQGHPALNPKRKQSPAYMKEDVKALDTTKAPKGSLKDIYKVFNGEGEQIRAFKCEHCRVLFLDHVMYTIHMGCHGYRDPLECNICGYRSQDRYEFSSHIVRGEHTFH
T2 sequence (Q96SW2 whole entry): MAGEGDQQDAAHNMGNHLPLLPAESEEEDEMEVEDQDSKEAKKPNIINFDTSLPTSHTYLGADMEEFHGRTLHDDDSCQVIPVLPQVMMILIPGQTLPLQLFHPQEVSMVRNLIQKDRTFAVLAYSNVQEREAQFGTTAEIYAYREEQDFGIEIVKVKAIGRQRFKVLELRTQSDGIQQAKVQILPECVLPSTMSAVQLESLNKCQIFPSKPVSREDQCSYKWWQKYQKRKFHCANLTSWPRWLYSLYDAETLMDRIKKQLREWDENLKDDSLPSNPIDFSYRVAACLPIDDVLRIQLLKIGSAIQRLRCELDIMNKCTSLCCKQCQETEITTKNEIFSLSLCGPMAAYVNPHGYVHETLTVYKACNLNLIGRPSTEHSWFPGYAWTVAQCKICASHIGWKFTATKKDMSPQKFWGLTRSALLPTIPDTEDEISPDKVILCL
T2 sequence (Q16531 whole entry partner): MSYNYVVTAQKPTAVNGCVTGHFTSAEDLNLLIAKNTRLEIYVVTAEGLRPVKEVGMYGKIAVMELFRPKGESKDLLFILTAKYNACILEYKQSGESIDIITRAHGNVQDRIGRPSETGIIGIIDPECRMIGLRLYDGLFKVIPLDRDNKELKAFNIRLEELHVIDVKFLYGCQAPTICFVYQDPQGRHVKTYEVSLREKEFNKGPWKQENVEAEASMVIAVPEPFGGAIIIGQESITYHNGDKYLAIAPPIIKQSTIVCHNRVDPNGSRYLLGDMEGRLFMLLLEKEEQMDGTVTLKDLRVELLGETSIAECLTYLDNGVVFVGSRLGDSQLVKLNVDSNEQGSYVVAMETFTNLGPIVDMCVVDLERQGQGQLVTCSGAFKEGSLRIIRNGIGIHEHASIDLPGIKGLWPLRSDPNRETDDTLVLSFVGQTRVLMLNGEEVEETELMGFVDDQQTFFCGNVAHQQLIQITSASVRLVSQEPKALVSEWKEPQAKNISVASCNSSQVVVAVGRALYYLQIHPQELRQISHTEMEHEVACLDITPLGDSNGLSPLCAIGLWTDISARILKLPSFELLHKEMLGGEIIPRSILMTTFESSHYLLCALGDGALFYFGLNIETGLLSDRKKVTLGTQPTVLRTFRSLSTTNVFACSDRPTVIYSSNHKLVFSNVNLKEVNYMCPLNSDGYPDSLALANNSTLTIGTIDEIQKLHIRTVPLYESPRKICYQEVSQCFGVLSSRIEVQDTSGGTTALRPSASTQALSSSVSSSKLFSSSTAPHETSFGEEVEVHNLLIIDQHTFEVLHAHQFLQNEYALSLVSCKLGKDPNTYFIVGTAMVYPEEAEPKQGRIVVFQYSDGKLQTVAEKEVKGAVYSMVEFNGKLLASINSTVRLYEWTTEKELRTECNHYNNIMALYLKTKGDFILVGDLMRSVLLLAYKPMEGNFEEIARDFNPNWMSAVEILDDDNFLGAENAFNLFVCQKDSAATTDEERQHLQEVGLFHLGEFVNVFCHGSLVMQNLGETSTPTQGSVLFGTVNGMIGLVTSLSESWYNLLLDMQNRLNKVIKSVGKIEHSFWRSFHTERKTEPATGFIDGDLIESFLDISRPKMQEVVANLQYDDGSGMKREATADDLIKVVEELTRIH
T1 sequence (Q96SW2 whole entry partner): as the sequence (Q96SW2 whole entry) above
T1 sequence (Q16531 whole entry partner): as the sequence (Q16531 whole entry partner) above
T1 sequence (Q13422 whole entry): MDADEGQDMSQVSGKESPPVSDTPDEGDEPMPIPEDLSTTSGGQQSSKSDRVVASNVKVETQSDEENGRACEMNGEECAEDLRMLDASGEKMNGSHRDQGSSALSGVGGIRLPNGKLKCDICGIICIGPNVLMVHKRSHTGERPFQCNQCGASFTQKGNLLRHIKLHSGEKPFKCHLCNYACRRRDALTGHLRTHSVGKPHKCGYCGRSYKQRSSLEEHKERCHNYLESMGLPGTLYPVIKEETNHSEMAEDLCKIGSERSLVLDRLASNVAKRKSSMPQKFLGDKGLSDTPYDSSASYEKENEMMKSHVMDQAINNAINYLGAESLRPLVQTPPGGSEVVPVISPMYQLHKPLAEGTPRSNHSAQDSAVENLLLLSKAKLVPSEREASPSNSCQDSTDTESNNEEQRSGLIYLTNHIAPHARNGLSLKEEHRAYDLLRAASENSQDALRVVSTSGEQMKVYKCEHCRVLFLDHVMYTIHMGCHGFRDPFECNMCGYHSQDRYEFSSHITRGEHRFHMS

On to `C[C@@H]1CCCCN1Cc1ccnc(-c2ccc3c(c2)CN(C2CCC(=O)NC2=O)C3=O)c1` (stereo partly drawn) [Example 71, 3-(5-(4-(((R)-2-methylpiperidin-1-yl)methyl)pyridin-2-yl)-1-oxoisoindolin-2-yl)piperidine-2,6-dione], for which, in assay [1] (setting [3]), the DC50 was more than 10000 nM and the Dmax came to 8%. In addition, in assay [2] (setting [3]), the DC50 is more than 10000 nM and the Dmax amounted to 17%.
For `C[C@H]1CCN(Cc2ccnc(-c3ccc4c(c3)CN(C3CCC(=O)NC3=O)C4=O)c2)C1` (stereo partly drawn) [Example 72, 3-(5-(4-(((S)-3-methylpyrrolidin-1-yl)methyl)pyridin-2-yl)-1-oxoisoindolin-2-yl) piperidine-2,6-dione], in assay [1] (setting [3]), the DC50 is more than 10000 nM and the Dmax is 13%. For the same compound, in assay [2] (setting [3]), it took 13 nM to reach half-maximal degradation (DC50) and the Dmax amounted to 90%.
On the same counts, the results for `C[C@H]1CCCN(Cc2ccnc(-c3ccc4c(c3)CN(C3CCC(=O)NC3=O)C4=O)c2)C1` (stereo partly drawn) [Example 73, 3-(5-(4-(((S)-3-methylpiperidin-1-yl)methyl)pyridin-2-yl)-1-oxoisoindolin-2-yl)piperidine-2,6-dione] are more than 10000 nM, 13%, 45 nM and 62%.
On the same counts, the results for `C[C@H]1CCCCN1Cc1ccnc(-c2ccc3c(c2)CN(C2CCC(=O)NC2=O)C3=O)c1` (stereo partly drawn) [Example 74, 3-(5-(4-(((S)-2-methylpiperidin-1-yl)methyl)pyridin-2-yl)-1-oxoisoindolin-2-yl)piperidine-2,6-dione] are more than 10000 nM, 16%, 2500 nM and 53%.
In the case of `C[C@@H]1CCCN(Cc2ccnc(-c3ccc4c(c3)CN(C3CCC(=O)NC3=O)C4=O)c2)C1` (stereo partly drawn) [Example 75, 3-(5-(4-(((R)-3-methylpiperidin-1-yl)methyl)pyridin-2-yl)-1-oxoisoindolin-2-yl)piperidine-2,6-dione], in assay [1] (setting [3]), the DC50 was more than 10000 nM and the Dmax was 10%. Moreover, in assay [2] (setting [3]), half-maximal degradation (DC50) was put at 14 nM and the Dmax turned out to be 94%.
On the same counts, the results for `O=C1CCC(N2Cc3cc(-c4cc(CN5CCC5c5ccccc5)ccn4)ccc3C2=O)C(=O)N1` (centres unmarked) [Example 76, 3-(1-oxo-5-(4-((2-phenylazetidin-1-yl)methyl)pyridin-2-yl)isoindolin-2-yl) piperidine-2,6-dione] are more than 10000 nM, 12%, 6 nM and 98%.
Taken in the same sequence, the figures for `O=C1CCC(N2Cc3cc(-c4cc(CNC5(C6CC6)CCC5)ccn4)ccc3C2=O)C(=O)N1` (centres unmarked) [Example 77, 3-(5-(4-(((1-cyclopropylcyclobutyl)amino)methyl)pyridin-2-yl)-1-oxoisoindolin-2-yl)piperidine-2,6-dione] were more than 10000 nM, 12%, 12 nM and 85%.
On the same counts, the results for `CN1C[C@@H]2CN(Cc3ccnc(-c4ccc5c(c4)CN(C4CCC(=O)NC4=O)C5=O)c3)C[C@@H]2C1` (stereo partly drawn) [Example 78, 3-(5-(4-(((3aR,6aS)-5-methylhexahydropyrrolo[3,4-c]pyrrol-2(1H)-yl)methyl)pyridin-2-yl)-1-oxoisoindolin-2-yl)piperidine-2,6-dione] are more than 10000 nM, 0%, more than 10000 nM and 49%.
For `O=C1CCC(N2Cc3cc(-c4cc(CN5CC6CC5CO6)ccn4)ccc3C2=O)C(=O)N1` (centres unmarked) [Example 79, 3-(5-(4-((2-oxa-5-azabicyclo[2.2.1]heptan-5-yl)methyl)pyridin-2-yl)-1-oxoisoindolin-2-yl) piperidine-2,6-dione], in assay [1] (setting [3]), the DC50 was more than 10000 nM and the Dmax is 8%. In addition, in assay [2] (setting [3]), the DC50 is more than 10000 nM and the Dmax was found to be 26%.
Take `CC1CC(NCc2ccnc(-c3ccc4c(c3)CN(C3CCC(=O)NC3=O)C4=O)c2)CCO1` (centres unmarked) [Example 80, 3-(5-(4-(((2-methyltetrahydro-2H-pyran-4-yl)amino)methyl)pyridin-2-yl)-1-oxoisoindolin-2-yl)piperidine-2,6-dione]: in assay [1] (setting [3]), the DC50 was more than 10000 nM and the “Ikaros Dmax” value turned out to be 12%. Also, in assay [2] (setting [3]), the DC50 was determined as 35 nM and the “Helios Dmax” value worked out at 99%.
For `C[C@@H]1C[C@H](C)CN(Cc2ccnc(-c3ccc4c(c3)CN(C3CCC(=O)NC3=O)C4=O)c2)C1` (stereo partly drawn) [Example 81, 3-(5-(4-(((3S,5R)-3,5-dimethylpiperidin-1-yl)methyl)pyridin-2-yl)-1-oxoisoindolin-2-yl)piperidine-2,6-dione], the DC50 is more than 10000 nM in assay [1] (setting [3]) and 78 nM in assay [2] (setting [3]). Also, the Dmax in assay [1] (setting [3]) worked out at 26%; in assay [2] (setting [3]), 64%.
For `CC1(C)CCN(Cc2ccnc(-c3ccc4c(c3)CN(C3CCC(=O)NC3=O)C4=O)c2)CC1` (centres unmarked) [Example 82, 3-(5-(4-((4,4-dimethylpiperidin-1-yl)methyl)pyridin-2-yl)-1-oxoisoindolin-2-yl)piperidine-2,6-dione], the DC50 is more than 10000 nM in assay [1] (setting [3]) and 9 nM in assay [2] (setting [3]). Also, the values for the Dmax in assay [1] (setting [3]) and in assay [2] (setting [3]) were 17% and 89%, respectively.
Consider `O=C1CCC(N2Cc3cc(-c4cc(CN5CC(c6ccccc6)C5)ccn4)ccc3C2=O)C(=O)N1` (centres unmarked) [Example 83, 3-(1-oxo-5-(4-((3-phenylazetidin-1-yl)methyl)pyridin-2-yl)isoindolin-2-yl)piperidine-2,6-dione], for which the DC50 in assay [1] (setting [3]) is more than 10000 nM; in assay [2] (setting [3]) it was 7 nM. Further, the Dmax in assay [1] (setting [3]) stood at 20%; in assay [2] (setting [3]), 91%.
For the compound `O=C1CCC(N2Cc3cc(-c4cc(CN[C@@H]5CCC[C@@H]5c5ccccc5)ccn4)ccc3C2=O)C(=O)N1` (stereo partly drawn) [Example 84, 3-(1-oxo-5-(4-((((1R,2R)-2-phenylcyclopentyl)amino)methyl)pyridin-2-yl)isoindolin-2-yl)piperidine-2,6-dione], in assay [1] (setting [3]), the DC50 is more than 10000 nM and the Dmax turned out to be 4%. In assay [2] (setting [3]), the DC50 worked out at 40 nM and the Dmax came out at 69%.
Taken in the same sequence, the figures for `CC1(C)CCCN(Cc2ccnc(-c3ccc4c(c3)CN(C3CCC(=O)NC3=O)C4=O)c2)C1` (centres unmarked) [Example 85, 3-(5-(4-((3,3-dimethylpiperidin-1-yl)methyl)pyridin-2-yl)-1-oxoisoindolin-2-yl)piperidine-2,6-dione] were more than 10000 nM, 7%, more than 10000 nM and 20%.
On to `O=C1CCC(N2Cc3cc(-c4cc(CNC5CCCC5)ccn4)ccc3C2=O)C(=O)N1` (centres unmarked) [Example 86, 3-(5-(4-((cyclopentylamino)methyl)pyridin-2-yl)-1-oxoisoindolin-2-yl)piperidine-2,6-dione], for which the DC50 in assay [1] (setting [3]) was more than 10000 nM; in assay [2] (setting [3]), 19 nM. Also, the figures for the Dmax in assay [1] (setting [3]) and in assay [2] (setting [3]) were 20% and 91%, respectively.
On the same counts, the results for `O=C1CCC(N2Cc3cc(-c4cc(CNC5CCCCC5)ccn4)ccc3C2=O)C(=O)N1` (centres unmarked) [Example 87, 3-(5-(4-((cyclohexylamino)methyl)pyridin-2-yl)-1-oxoisoindolin-2-yl) piperidine-2,6-dione] are more than 10000 nM, 29 nM, 12% and 100%.
Taken in the same sequence, the figures for `O=C1CCC(N2Cc3cc(-c4cc(CNCCN5CCOCC5)ccn4)ccc3C2=O)C(=O)N1` (centres unmarked) [Example 88, 3-(5-(4-(((2-morpholinoethyl)amino)methyl)pyridin-2-yl)-1-oxoisoindolin-2-yl)piperidine-2,6-dione] were more than 10000 nM, 72 nM, 27% and 102%.
For `CC(C)(C)NCc1ccnc(-c2ccc3c(c2)CN(C2CCC(=O)NC2=O)C3=O)c1` (centres unmarked) [Example 89, 3-(5-(4-((tert-butylamino)methyl)pyridin-2-yl)-1-oxoisoindolin-2-yl)piperidine-2,6-dione], the DC50 in assay [1] (setting [3]) is more than 10000 nM; in assay [2] (setting [3]), 103 nM. Further, the Dmax came out at 8% in assay [1] and 71% in assay [2].
On to `O=C1CCC(N2Cc3cc(-c4cc(CNCC(c5ccccc5)c5ccccc5)ccn4)ccc3C2=O)C(=O)N1` (centres unmarked) [Example 90, 3-(5-(4-(((2,2-diphenylethyl)amino)methyl)pyridin-2-yl)-1-oxoisoindolin-2-yl)piperidine-2,6-dione], for which, in assay [1] (setting [3]), the DC50 was more than 10000 nM and the Dmax amounted to 17%. For the same compound, in assay [2] (setting [3]), half-maximal degradation (DC50) was put at 213 nM and the Dmax was 61%.
Taken in the same sequence, the figures for `CC(=O)NCCNCc1ccnc(-c2ccc3c(c2)CN(C2CCC(=O)NC2=O)C3=O)c1` (centres unmarked) [Example 91, N-(2-(((2-(2-(2,6-dioxopiperidin-3-yl)-1-oxoisoindolin-5-yl)pyridin-4-yl)methyl)amino)ethyl)acetamide] were more than 10000 nM, 4%, 3530 nM and 60%.
`O=C1CCC(N2Cc3cc(-c4cc(CNCCO)ccn4)ccc3C2=O)C(=O)N1` (centres unmarked) [Example 92, 3-(5-(4-(((2-hydroxyethyl)amino)methyl)pyridin-2-yl)-1-oxoisoindolin-2-yl) piperidine-2,6-dione]: in assay [1] (setting [3]), the DC50 is more than 10000 nM and the Dmax came to 11%. For the same compound, in assay [2] (setting [3]), the DC50 was 209 nM and the Dmax came out at 92%.
Taken in the same sequence, the figures for `O=C1CCC(N2Cc3cc(-c4cc(CNCCc5ccccc5Cl)ccn4)ccc3C2=O)C(=O)N1` (centres unmarked) [Example 93, 3-(5-(4-(((2-chlorophenethyl)amino)methyl)pyridin-2-yl)-1-oxoisoindolin-2-yl)piperidine-2,6-dione] were more than 10000 nM, 23%, 9 nM and 103%.

The values are drawn from patent US11548870B2, “Compounds useful as inhibitors of helios protein” (Bristol-Myers Squibb Company, priority 2019, dated 2023).
